Laboratory results taken from patent US20100172854A1, “ANTIBACTERIAL FORMULATIONS” (priority 2007, published 2010).
Values after ≈ are worked out from the molar mass of the structure shown.

Key:
[1] = test system: Propionibacterium acnes NCTC 737; test: MIC assay; type: cell-based; details: Cutibacterium acnes, NCTC737; P. acnes NCTC 737
Procedure: (§1) The propionibacteria were cultured and maintained on Wilkins-Chalgren Anaerobe Medium (agar and broth) at pH 6.0; all cultures were incubated anaerobically at 37° C. for 72 hours.
(§2) This is a standard international method for quantitatively assessing the antimicrobial activity of a compound in a liquid medium. The method used a sterile 96-well microtitre plate, capable of holding about 200 μl of liquid per well. The wells contained liquid culture medium and ranges of decreasing concentrations of the relevant test compound in doubling dilutions (e.g. 1000, 500, 250, 125 . . . μg/ml, etc. down to 0.49 μg/ml). The culture media were as described above.
(§3) The wells were inoculated with a liquid suspension of freshly grown micro-organism and incubated under the conditions described above. After incubation, the microtitre plate was examined visually (with the aid of a light box) for cloudiness in each well, which would indicate microbial growth. The MIC value was recorded as the lowest concentration of test compound required to inhibit microbial growth, i.e. the lowest concentration for which the liquid in the well remained clear.
(§4) The assays included both negative (culture medium with no micro-organisms) and positive (culture medium plus diluting solvent plus micro-organism) controls.

[2] = test system: Actinomyces naeslundii ATCC 12104; test: MIC assay; type: cell-based
Procedure: as §2, §3, §4

[3] = test system: Bacillus cereus ATCC 11778; test: MIC assay; type: cell-based
Procedure: as §2, §3, §4

[4] = test system: Clostridium difficile ATCC 7000057; test: MIC assay; type: cell-based; details: Clostridioides difficile, ATCC7000057
Procedure: as §2, §3, §4

[5] = test system: Clostridium sporogenes ATCC 3584; test: MIC assay; type: cell-based; details: ATCC3584
Procedure: as §2, §3, §4

[6] = test system: Corynebacterium mucifaciens ATCC 700355; test: MIC assay; type: cell-based; details: Corynebacterium mucifaciens, ATCC700355
Procedure: as §2, §3, §4

[7] = test system: Enterococcus faecalis ATCC 29212; test: MIC assay; type: cell-based; details: Enterococcus faecalis, ATCC29212
Procedure: as §2, §3, §4

[8] = test system: Gardnerella vaginalis ATCC 14018; test: MIC assay; type: cell-based; details: ATCC14018
Procedure: as §2, §3, §4

[9] = test system: Listeria monocytogenes ATCC 15313; test: MIC assay; type: cell-based
Procedure: as §2, §3, §4

[10] = test system: Prevotella nigrescens ATCC 33563; test: MIC assay; type: cell-based; details: ATCC33563
Procedure: as §2, §3, §4

[11] = test system: Streptococcus pyogenes ATCC 12344; test: MIC assay; type: cell-based; details: ATCC12344; Streptococcus pyogenes ATCC 12344
Procedure: as §2, §3, §4

[12] = test system: Streptococcus sobrinus ATCC 33478; test: MIC assay; type: cell-based; details: ATCC33478
Procedure: as §2, §3, §4

P. granulosum PRP-005 = test: Agar dilution MIC assay; type: cell-based; details: Propionibacterium, PRP005, resistance phenotype MLSK
Procedure: as §1
(§5) This is a standard international method for quantitatively assessing the antimicrobial activity of a compound in a solid medium. The test compound was prepared to 40× the highest concentration required (e.g. 10 mg/ml for a final concentration of 250 μg/ml) and a series of doubling dilutions were performed in a suitable solvent. A set amount of these antimicrobial stock solutions was then added to molten agar medium (ca. 55° C.), mixed thoroughly, poured into sterile Petri dishes and allowed to cool/set. The culture medium was as described above.
(§6) A Multipoint™ Inoculator (AQS Manufacturing Ltd, UK) was used to inoculate the plates by spotting the inocula onto the surface of the agar, delivering approximately 1 to 2 μl per spot (yielding 10^5 CFU (colony forming units) per spot).
(§7) The plate(s) were then incubated under the conditions described above, following which they were examined visually for signs of bacterial growth. The MIC value was ascertained when there was a marked reduction in, or total loss of, growth on the test plate at the lowest concentration as compared to that of the growth on the control plate.
(§8) The assays were conducted in triplicate and included a positive control (culture medium, diluting solvent and inoculum).

P. granulosum PRP-055 = test: Agar dilution MIC assay; type: cell-based; details: Propionibacterium, PRP055, resistance phenotype None
Procedure: as §1, §5, §6, §7, §8

P. granulosum PPR-006 = test: Agar dilution MIC assay; type: cell-based, Propionibacterium granulosum; details: Propionibacterium, PPR006
Procedure: as §1, §5, §6
as §7, with “plate. […]” for “plate.”

P. acnes PRP-002 = test: Agar dilution MIC assay; type: cell-based, Propionibacterium acnes; details: Cutibacterium acnes, PRP002, resistance phenotype Tet/MLS
Procedure: as §1, §5, §6, §7, §8

P. acnes PRP-003 = test: Agar dilution MIC assay; type: cell-based, Propionibacterium acnes; details: Cutibacterium acnes, PRP003, resistance phenotype Tet
Procedure: as §1, §5, §6, §7, §8

P. acnes PRP-010 = test: Agar dilution MIC assay; type: cell-based, Propionibacterium acnes; details: Cutibacterium acnes, PRP010, resistance phenotype MLSK
Procedure: as §1, §5, §6, §7, §8

P. acnes PRP-017 = test: Agar dilution MIC assay; type: cell-based, Propionibacterium acnes; details: Cutibacterium acnes, PRP017, resistance phenotype MLS
Procedure: as §1, §5, §6, §7, §8

P. acnes PRP-023 = test: Agar dilution MIC assay; type: cell-based, Propionibacterium acnes; details: Cutibacterium acnes, PRP023, resistance phenotype MLSK
Procedure: as §1, §5, §6, §7, §8

P. acnes PRP-026 = test: Agar dilution MIC assay; type: cell-based, Propionibacterium acnes; details: Cutibacterium acnes, PRP026, resistance phenotype MLS
Procedure: as §1, §5, §6, §7, §8

P. acnes PRP-039 = test: Agar dilution MIC assay; type: cell-based, Propionibacterium acnes; details: Cutibacterium acnes, PRP039, resistance phenotype Tet/MLS
Procedure: as §1, §5, §6, §7, §8

P. acnes PRP-046 = test: Agar dilution MIC assay; type: cell-based, Propionibacterium acnes; details: Cutibacterium acnes, PRP046, resistance phenotype None
Procedure: as §1, §5, §6, §7, §8

P. acnes PRP-059 = test: Agar dilution MIC assay; type: cell-based, Propionibacterium acnes; details: Cutibacterium acnes, PRP059, resistance phenotype MLS
Procedure: as §1, §5, §6, §7, §8

P. acnes PRP-102 = test: Agar dilution MIC assay; type: cell-based, Propionibacterium acnes; details: Cutibacterium acnes, PRP102, resistance phenotype Tet/MLS
Procedure: as §1, §5, §6, §7, §8

tumour = details: compound isolated from Aspergillus fumigatus, believed to be Antioxidant 2246; cited from earlier work

Q: What does the source list for `Cc1cc(Cc2cc(C)cc(C(C)(C)C)c2O)c(O)c(C(C)(C)C)c1` [AO 2246, 2,2′-methylene-bis(4-methyl-6-tert-butylphenol)]?
A: MIC [1]: 3.9 µg/mL (≈ 11.5 µM); MIC [2]: 1.95 µg/mL (≈ 5.73 µM); MIC [3]: 1.95 µg/mL (≈ 5.73 µM); MIC [4]: 3.9 µg/mL (≈ 11.5 µM); MIC [5]: 3.9 µg/mL (≈ 11.5 µM); MIC [6]: 1.95 µg/mL (≈ 5.73 µM); MIC [7]: 1.95 µg/mL (≈ 5.73 µM); MIC [8]: 15.6 µg/mL (≈ 45.8 µM); MIC [9]: 1.95 µg/mL (≈ 5.73 µM); MIC [10]: 7.8 µg/mL (≈ 22.9 µM); MIC [11]: 0.98 µg/mL (≈ 2.88 µM); MIC [12]: 15.6 µg/mL (≈ 45.8 µM); MIC (P. granulosum PRP-005): 3.9 µg/mL (≈ 11.5 µM); MIC (P. granulosum PRP-055): 3.9 µg/mL (≈ 11.5 µM); MIC (P. granulosum PPR-006): 1.95 µg/mL (≈ 5.73 µM); MIC (P. acnes PRP-002): 3.9 µg/mL (≈ 11.5 µM); MIC (P. acnes PRP-003): 3.9 µg/mL (≈ 11.5 µM); MIC (P. acnes PRP-010): 3.9 µg/mL (≈ 11.5 µM); MIC (P. acnes PRP-017): 3.9 µg/mL (≈ 11.5 µM); MIC (P. acnes PRP-023): 3.9 µg/mL (≈ 11.5 µM); MIC (P. acnes PRP-026): 3.9 µg/mL (≈ 11.5 µM); MIC (P. acnes PRP-039): 3.9 µg/mL (≈ 11.5 µM); MIC (P. acnes PRP-046): 3.9 µg/mL (≈ 11.5 µM); MIC (P. acnes PRP-059): 3.9 µg/mL (≈ 11.5 µM); MIC (P. acnes PRP-102): 3.9 µg/mL (≈ 11.5 µM); anti-tumour activity (tumour): anti-tumour activity
